The text below walks through data of patent US7485416B2, “Screening methods for the identification of agents that inhibit SIRT1 Tat deacetylase activity” (The Regents of the University of California, priority 2003, dated 2009).

For one assay, the system named is HIV LTR luciferase. In words: Nuclear microinjection of synthetic Tat or AcTat with HIV LTR luciferase reporter into HeLa cells. It is filed as cell-based. The note with it: for basal HIV promoter activity / transcriptional activity of AcTat (transactivation of the HIV promoter): TSA 400 nM or nicotinamide 5 mM, four hours (FIG. 6C). How it is done: Subconfluent MEFs (70%) were grown on Cellocate coverslips (Eppendorf, Westbury, N.Y.), and nuclear microinjections were performed at room temperature with an automated injection system (Eppendorf Micromanipulator 5171 together with Eppendorf Transjector 5246). Samples were prepared as a 20 μl injection mix containing the HIV LTR luciferase reporter or 5×UAS luciferase (each 100 ng/μl), RSV-Tat (10 ng/μl) or Gal4-VP16 (50 ng/μl), CMV-CyclinT1 (100 ng/μl), CMV-SIRT1 (100 or 300 ng/μl) together with CMV-GFP (50 ng/μl) in sterile water. Six hours after microinjection, cells were examined under a Nikon Eclipse TE300 inverted fluorescent microscope to determine the number of GFP-positive cells, washed in cold phosphate buffer, and stored at −70° C. for luciferase assays (Promega). In HeLa cells, synthetic Tat or AcTat proteins (each 30 or 100 ng/μl) were co-injected with the wildtype or mutant HIV LTR luciferase reporters (each 100 ng/μl) together with CMV-GFP (50 ng/μl) and harvested four hours after injection. Cells were treated immediately after injection with 5,6-dichlorobenzimidazole riboside (DRB; 10 or 50 μM; Sigma), TSA (400 nM), or nicotinamide (5 mM). Microinjections in siRNA-treated cells were performed 48 hours after siRNA transfection.
Background: In a reporter assay the amount or activity of a reporter protein is the signal.

Assay [1] has as its system Tat-dependent HIV transcription. The experiment in a line: Tat transactivation of HIV LTR luciferase reporter in transfected HeLa cells treated with HR73. Type of assay: cell-based. The following applies: at ~1 μM, 8 hours, dose-dependent (FIG. 7C left). The procedure: (§1) In co-transfection experiments, human CMV-SIRT1 or CMV-SIRT1H363Y (600 ng) was co-transfected into HeLa cells plated in six-well plates with the HIV LTR luciferase reporter (200 ng) or the LTRΔNF-kB-luciferase reporter (200 ng) and increasing amounts of RSV-Tat (0 ng, 2 ng, 20 ng, and 200 ng) using the lipofectamine reagents (Invitrogen). In the control experiment, RSV-Tat was replaced by RSV luciferase (200 ng), and the HIV LTR luciferase construct was replaced by the HIV LTR CAT reporter. […] The RSV-luciferase construct was used as described above. […] Cells were harvested 8 hr later and processed for luciferase assays.

Assay [2] deals with HIV-R7/E-/GFP (HIVNL4-3 with GFP in place of nef). The experiment in a line: Single-cycle HIV infection of Jurkat T cells, GFP expression by flow cytometry. The following applies: 1 μM, 36 hours (FIG. 7D left). Type of assay: cell-based. The procedure:
(§2) The HIV molecular clone (HIV-R7/E^−/GFP) containing the GFP open reading frame in place of the nef gene and a frameshift mutation in the env gene as well as the method to generate pseudotyped viral particles with VSV-G was previously described. Jordan et al. (2003) Embo J 22: 1868-1877. The number of infective particles per ml was established by infecting 3×10^5 Jurkat cells with different amounts of viral suspension. The titer of the viral stock was measured by flow cytometry analysis of GFP expression 48 hours after infection. The pHR′-EF-1α/GFP construct is a minimal nonreplicative HIV-1 genome containing a heterologous promoter (EF-1α) driving GFP expression. Naldini et al. (1996) Science 272: 263-267. […]. Zufferey et al. (1997) Nat Biotechnol 15: 871-875. All vectors for the production of HIV-based lentiviral vectors were provided by D. Trono, University of Geneva, Switzerland. Jurkat T cells were incubated overnight with HIV-R7/E^−/GFP or pHR′-EF-1α/GFP viral particles at a theoretical multiplicity of infection (m.o.i.) of 0.5 in 24-well plates. […] Viral infection was monitored 36 hours later by flow cytometry analysis using a Calibur FACScan (Becton Dickinson).

The next assay concerns p53. In words: p53 acetylation in cells. It is filed as cell-based. The note with it: 1 μM.
The test system of the next assay is RSV LTR. The experiment in a line: RSV luciferase control in transfected HeLa cells. Type of assay: cell-based. The following applies: 1 μM (FIG. 7C right). The procedure:
as §1

A further assay has as its system pHR'-EF-1α/GFP. In words: HIV-based lentiviral vector expressing GFP from EF-1α promoter in Jurkat T cells (control). It is filed as cell-based. The note with it: 1 μM, 36 hours (FIG. 7D right). How it is done: as §2
For a further assay, the target named is T1, SIRT1 (Homo sapiens, UniProt Q96EB6).
T1 construct: made in house; host or cells: HEK 293 cells (transient transfection, anti-FLAG M2 agarose immunoprecipitation)
T1 sequence (Q96EB6 1-747): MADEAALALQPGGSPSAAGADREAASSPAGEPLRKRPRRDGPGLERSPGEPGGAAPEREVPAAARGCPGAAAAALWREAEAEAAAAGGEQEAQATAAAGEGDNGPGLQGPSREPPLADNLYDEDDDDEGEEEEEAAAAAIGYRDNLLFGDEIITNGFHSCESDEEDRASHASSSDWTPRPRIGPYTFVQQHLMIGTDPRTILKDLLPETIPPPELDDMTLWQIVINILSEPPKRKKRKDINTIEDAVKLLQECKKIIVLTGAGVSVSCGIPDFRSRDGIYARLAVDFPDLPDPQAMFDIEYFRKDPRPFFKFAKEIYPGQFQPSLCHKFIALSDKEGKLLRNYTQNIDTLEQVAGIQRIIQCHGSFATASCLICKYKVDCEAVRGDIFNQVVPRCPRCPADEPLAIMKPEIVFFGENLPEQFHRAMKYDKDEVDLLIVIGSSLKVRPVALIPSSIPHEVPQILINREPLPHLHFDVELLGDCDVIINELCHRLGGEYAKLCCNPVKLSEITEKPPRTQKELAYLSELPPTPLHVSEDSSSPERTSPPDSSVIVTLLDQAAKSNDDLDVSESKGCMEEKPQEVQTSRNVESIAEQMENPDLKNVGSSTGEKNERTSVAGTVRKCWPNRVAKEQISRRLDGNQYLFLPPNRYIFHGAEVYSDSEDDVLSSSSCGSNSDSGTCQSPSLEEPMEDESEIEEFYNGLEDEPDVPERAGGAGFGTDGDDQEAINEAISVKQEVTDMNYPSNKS
The experiment in a line: In vitro Tat deacetylation assay with immunoprecipitated SIRT1. The following applies: AcTat, NAD+ 1 mM; nicotinamide 5 mM, TSA 400 nM; western blot (FIG. 2B). Type of assay: biochemical. The procedure: Human SIRT1-7 FLAG-tagged plasmids were transfected in 293 cells with lipofectamine reagent (Invitrogen). Cells were lysed 24 hours after transfection with lysis buffer (50 mM Tris-Hcl, pH 7.5, 0.5 mM EDTA, 0.5% NP40, 150 mM NaCl) in the presence of protease inhibitors (Roche Molecular Biochemicals, Indianapolis, Ind.). Equal amounts of total proteins were immunoprecipitated with α-FLAG (anti-FLAG antibody) coupled to M2 agarose beads (Sigma, St Louis, Mo.), for 2 hours at 4° C. Immunoprecipitated material was washed twice with immunoprecipitation (IP) buffer and one time with SIRT deacetylation buffer (50 mM Tris-HCl pH 9, 4 mM MgCl2, 0.2 mM DTT). The beads were resuspended in 100 μl SIRT deacetylation buffer containing 1 μg synthetic Tat (72 amino acids) carrying an N-terminal biotin label and an acetyl group at position 50. Kaehlcke et al. (2003), supra. Reactions containing TSA (400 nM, WACO Bioproducts, Richmond, Va.) or nicotinamide (5 mM, Sigma) were preincubated for 10 min at room temperature. […] Reactions were stopped by the addition of SDS loading buffer, boiled, and after brief centrifugation, analyzed by western blotting with rabbit α-AcTat antibodies (Kaehlcke et al. (2003), supra) or horseradish peroxidase-conjugated streptavidin (Jackson Immunoresearch Laboratories, West Grove, Pa.). SIRT1-7 proteins were detected with polyclonal α-FLAG antibodies (Sigma).

Take `OC[C@H]1O[C@@H](n2cnc3cc(Cl)c(Cl)cc32)[C@H](O)[C@@H]1O` [DRB, 5,6-dichlorobenzimidazole riboside]: the “transactivation by Tat and AcTat” value in the assay on HIV LTR luciferase (Tat or AcTat 30 ng/μl, DRB 10 or 50 μM, four hours (FIG. 6B)) is “inhibited in a dose-dependent manner”.

For `O=C1Oc2ccc3cc(Br)ccc3c2CC1c1ccccc1` (stereo not drawn) [HR73], in assay [1], the “suppression of Tat-dependent HIV transcription” value was found to be 3 fold. The “reduction of HIV gene expression as measured by GFP expression” value in assay [2] is reported as 5 fold. The “acetylation of p53” value with p53 is on record as “induced hyperacetylation”. In addition, the “activity of the RSV LTR” value with RSV LTR is listed as “did not suppress”. The “GFP expression from the EF-1α promoter” value in the assay on pHR'-EF-1α/GFP is listed as “not affected”.

Take `CC(/C=C/C(=O)NO)=C\[C@@H](C)C(=O)c1ccc(N(C)C)cc1` [TSA]: in the assay on HIV LTR luciferase, the “basal HIV promoter activity” value is “enhanced” and the “transcriptional activity of AcTat (transactivation of the HIV promoter)” value is listed as “enhanced”. Moreover, the “effect on SIRT1-mediated deacetylation of Tat” value on SIRT1 was “had no effect”.

With `NC(=O)c1cccnc1` [nicotinamide], in the assay on HIV LTR luciferase, the “basal HIV promoter activity” value is “stimulating” and the “transcriptional activity of AcTat (transactivation of the HIV promoter)” value is given as “blocked”. For the same compound, the “effect on SIRT1-mediated deacetylation of Tat” value on SIRT1 is “completely inhibited”.
